Laboratory results as given in paper PMC10338474 (Nature Communications, 2023).
Several values for one entry are separate records, joined by “and”; a condition that tells them apart may be missing. Equal entries are not always repeated. Entries after “also recorded” stand apart in the source; their conditions may differ. Where two headings read alike, the source gives them in different places.

Tests used:
arrhythmia in mice = conditions: cited from earlier work
EPAC1^α-CNB-GEF [1] = conditions: cited from earlier work
EPAC1^FL [2] = target: T1, EPAC1^FL (Homo sapiens, UniProt O95398); assay: Liposome flotation binding assay of EPAC1^FL
T1 construct: Human full-length EPAC1 (EPAC1^FL) was cloned into a pET28a vector (6xHis tag in N-terminus); made in house; host or cells: E. coli BL21 (DE3) pG-KJE8
T1 sequence (O95398 1-881 isoform O95398-3): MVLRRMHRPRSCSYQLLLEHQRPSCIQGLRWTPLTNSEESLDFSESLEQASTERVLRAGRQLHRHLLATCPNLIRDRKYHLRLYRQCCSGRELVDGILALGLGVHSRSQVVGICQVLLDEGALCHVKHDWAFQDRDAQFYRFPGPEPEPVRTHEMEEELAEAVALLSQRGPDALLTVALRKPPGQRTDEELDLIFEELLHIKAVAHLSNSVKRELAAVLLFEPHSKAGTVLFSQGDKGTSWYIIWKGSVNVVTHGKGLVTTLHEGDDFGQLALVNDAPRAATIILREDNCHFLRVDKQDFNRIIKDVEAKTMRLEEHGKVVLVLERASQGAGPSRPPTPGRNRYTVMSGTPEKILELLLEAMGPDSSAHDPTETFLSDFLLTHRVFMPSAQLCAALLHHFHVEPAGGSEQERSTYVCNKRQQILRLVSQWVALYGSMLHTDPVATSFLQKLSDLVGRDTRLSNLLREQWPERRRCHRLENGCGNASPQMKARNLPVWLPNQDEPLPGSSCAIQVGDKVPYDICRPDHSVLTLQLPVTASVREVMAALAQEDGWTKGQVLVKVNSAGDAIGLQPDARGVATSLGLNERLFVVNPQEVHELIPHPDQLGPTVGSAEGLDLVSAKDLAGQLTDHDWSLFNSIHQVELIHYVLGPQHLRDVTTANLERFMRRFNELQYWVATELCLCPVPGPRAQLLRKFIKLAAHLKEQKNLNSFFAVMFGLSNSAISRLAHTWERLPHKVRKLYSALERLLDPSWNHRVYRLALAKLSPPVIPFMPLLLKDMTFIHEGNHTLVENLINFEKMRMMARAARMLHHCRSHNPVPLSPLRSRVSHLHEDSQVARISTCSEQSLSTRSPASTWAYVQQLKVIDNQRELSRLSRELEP

[3] = tested on: isolated CNB domain of EPAC1; conditions: NMR; without competing with cAMP; cited from earlier work
[4] = tested on: Rap1 GTPase in cardiomyocytes; set-up: method as in PMID 23139415; conditions: cited from earlier work
EPAC1^α-CNB-GEF [5] = target: EPAC1^α-CNB-GEF (Homo sapiens, UniProt O95398); conditions: for Dmax (largest protein dimension): EPAC1^α-CNB-GEF with the single ligand (cAMP 1 mM/200 μM or CE3F4 100 μM racemic mix)
Protocol: All small angle X-ray scattering (SAXS) data were obtained from size exclusion chromatography-SAXS (SEC-SAXS) experiments on the SWING beamline (SOLEIL synchrotron, France), using the EPAC1^α-CNB-GEF construct. EPAC1 was used at a concentration of 60 μM to obtain high SAXS intensities. Samples were injected on high-performance liquid chromatography (HPLC) size exclusion column (BioSEC-3 300 Å, Agilent Technologies, Inc.) equilibrated with the elution buffer (20 mM Tris-HCl pH 8.0, 150 mM NaCl, 0.5 mM EDTA). […] Data reduction to absolute units, frame averaging, and subtraction were done using the FOXTROT program suite (SOLEIL synchrotron). Frames corresponding to the high-intensity fractions of the peak and having a constant radius of gyration (Rg) within error were averaged. […] Rg values were evaluated by Guinier Wizard using the data within the range of Guinier approximation sRg < 1.3 and by Distance Distribution Wizard, both of which are modules of the PRIMUS program. The maximum distance Dmax was estimated with PRIMUS and refined by trial and error with GNOM. The distance distribution functions were calculated with GNOM. SAXS profiles were compared with DATCMP (ATSAS suite).

arrhythmia in rats = conditions: cited from earlier work
EPAC1^GEF = EPAC1^GEF (Homo sapiens, UniProt O95398); conditions: cited from earlier work
EPAC1^FL [6] = target: T1, EPAC1^FL; assay: Nucleotide exchange kinetics assay (BODIPY-GDP dissociation from Rap1) with full-length EPAC1; assay type: biochemical; conditions: for increase in affinity, PM liposomes vs solution: ratio of apparent KD
Protocol: Liposomes were added at 100 μM (total lipids).
Nonlinear regression based on a straight line model was performed with GraphPad Prism. EPAC1 pseudo first order catalytic efficiencies kcat/KM were deduced from the slopes of the curves, according to the Michaelis–Menten formalism. […] Nonlinear regression based on a sigmoidal model was performed with GraphPad Prism. KD and kmax were deduced from the EC50 and top values of the curves, respectively.

EPAC1^CNB-GEF = EPAC1^CNB-GEF (Homo sapiens, UniProt O95398); conditions: in solution; Supplementary Fig. 4d
Protocol: For kinetics assays, the Rap1 GTPase was loaded with BODIPY-FL-GDP (Jena Bioscience) prior to nucleotide exchange by incubating 50 μM Rap1 with 250 μM BODIPY-GDP and 10 mM EDTA for 30 min at room temperature. Nucleotide exchange was stopped by the addition of 75 mM MgCl2. Removal of excess nucleotides and buffer exchange were done on a PD SpinTrap G-25 (GE HealthCare Life Science). Nucleotide exchange kinetics were monitored by following the decay of BODIPY-GDP fluorescence upon replacement by GTP, using excitation and emission wavelengths of 485 and 530 nm, respectively. Measurements were carried out at 30 °C on a Cary Eclipse fluorimeter (Varian) under stirring in 800 μL cuvettes, or in microplate wells (150 μL) on a FLEXstation (Molecular Devices). […] Liposomes were added at 100 μM (total lipids). For kinetics in solution, kobs values were determined from a mono-exponential fit. […] In this case, kobs values corresponding to the fast component were used.

[7] = target: Rap1/EPAC1^α-CNB-GEF complex (Homo sapiens, UniProt O95398); conditions: cAMP 1 mM, EDTA, DMSO
Protocol: EPAC1^α-CNB-GEF was used at 25 μM in all experiments. […] Proteins samples were injected into a 25 mL Superdex 200 gel filtration column (GE Healthcare) at 0.5 mL/min. Fractions were analyzed by SDS-PAGE.

EPAC1 = conditions: cited from earlier work
[8] = target: CNB domain-containing EPAC1 constructs (Homo sapiens, UniProt O95398); conditions: Supplementary Fig. 2c

Q: With CC1CCc2c(cc(Br)c(F)c2Br)N1C=O (stereo not shown) [CE3F4] as the compound, how does the arrhythmia (arrhythmia in mice) read?
A: prevents

Q: And the “in vitro activation of Rap1 by EPAC1^α-CNB-GEF” value (EPAC1^α-CNB-GEF [1])?
A: inhibits

Q: And the “Binding (%) of EPAC1^FL to PM liposomes, DMSO set to 100%” value (EPAC1^FL [2]; Fig. 4f left, without cAMP, CE3F4 50 μM)?
A: 81%

Q: And the “binding to the isolated CNB domain” value [3]?
A: binds

Q: What about the “activation of the Rap1 GTPase in cardiomyocytes” value [4] of the same compound?
A: efficiently inhibits

Q: What about the “Rg, Guinier analysis” value (EPAC1^α-CNB-GEF [5]; +cAMP +CE3F4) of the same compound?
A: 33.41 Å

Q: What about the “Rg, P(r) analysis” value (EPAC1^α-CNB-GEF [5]; +cAMP +CE3F4) of the same compound?
A: 33.84 Å

Q: What about the “Dmax (largest protein dimension)” value (EPAC1^α-CNB-GEF [5]) of the same compound?
A: 114 Å

Q: What about the “Rg, Guinier analysis” value (EPAC1^α-CNB-GEF [5]; single ligand) of the same compound?
A: 32.58 Å

Q: And the “Rg, P(r) analysis” value (EPAC1^α-CNB-GEF [5]; single ligand)?
A: 32.86 Å

Q: What about the arrhythmia (arrhythmia in rats) of the same compound?
A: prevents

Q: What about the “inhibition of the GEF domain of EPAC1 alone” value (EPAC1^GEF) of the same compound?
A: does not inhibit

Q: With Nc1ncnc2c1ncn2[C@@H]1O[C@@H]2COP(=O)(O)O[C@H]2[C@H]1O [cAMP, cyclic adenosine monophosphate] as the compound, how does the “effect of addition of cAMP on EPAC1^FL binding to PS-PIP2 liposomes with cholesterol” value (EPAC1^FL [2]; flotation assay, 1 mM cAMP) read?
A: no discernible effect

Q: What about the “increase in affinity, PM liposomes vs solution” value (EPAC1^FL [6]) of the same compound?
A: 278 fold

Q: And the “effect of cAMP on intrinsic GEF activity of EPAC1^CNB-GEF” value (EPAC1^CNB-GEF)?
A: increased

Q: And the “Dmax (largest protein dimension)” value (EPAC1^α-CNB-GEF [5])?
A: 130 Å

Q: And the “Rg, Guinier analysis” value (EPAC1^α-CNB-GEF [5]; single ligand)?
A: 34.91 Å

Q: What about the “Rg, P(r) analysis” value (EPAC1^α-CNB-GEF [5]; single ligand) of the same compound?
A: 35.53 Å

Q: And the “formation of the Rap1-EPAC1^α-CNB-GEF complex” value [7]?
A: readily observed

Q: What about the “effect of cAMP on binding of CNB domain-containing EPAC1 constructs to PM liposomes” value [8] of the same compound?
A: does not increase

Q: With CO[C@@H]1[C@@H]2OP(=O)(O)OC[C@H]2O[C@H]1n1c(Sc2ccc(Cl)cc2)nc2c(N)ncnc21 [compound 007, 8-(4-chlorophenylthio)−2’-O-methyl-cAMP] as the compound, how does the “increase of kmax, PM liposomes vs solution” value (EPAC1^FL [6]) read?
A: 12.3 fold and 12 fold

Q: What about the Kd (EPAC1^FL [6]; in solution, Supplementary Table 5 mean) of the same compound?
A: 1.57 µM

Q: And the “increase in affinity, PM liposomes vs solution” value (EPAC1^FL [6])?
A: 107 fold

Q: And the “maximal activity (kmax) compared to cAMP” value (EPAC1; in solution, in vitro)?
A: threefold; also recorded: three times higher
